Data taken from PubChem BioAssay AID1053154 (Broad Institute, 2014).

Tested on: HepG2, simvastatin, LDLR mRNA qPCR, 6 h
Test: statin-induced LDLR expression modulation – cell-based, HepG2, RT-PCR, simvastatin, cherry-pick, mechanism study for Trib1 inducer project, late-stage follow-up (AID 1053154)
Conditions: hits give high values

| Structure (SMILES) | fold change |
| --- | --- |
| CN1C(=O)c2cc(NC(=O)c3ccc(C(F)(F)F)cc3)ccc2OC[C@@H]2O[C@@H](CC(=O)NC3Cc4ccccc4C3)CC[C@@H]21 | 10 |
| CN1C(=O)c2cc(NC(=O)c3ccc(C(F)(F)F)cc3)ccc2OC[C@@H]2O[C@H](CC(=O)NC3Cc4ccccc4C3)CC[C@@H]21 | 2 |
